# Measurements reported in patent publication US20130046283A1, “METHODS AND INTRAVASCULAR TREATMENT DEVICES FOR TREATMENT OF ATHEROSCLEROSIS” (Medtronic Vascular, Inc., priority 2011, published 2013).
# “Also recorded” adds a separate entry of the source.
# How the values were obtained:
# Format in all cases: cell-based
# CTGF [1] = assay: Western blot of CTGF protein in drug-treated SFA derived smooth muscle cells; conditions: drug then Colchicinne or Angiotensin II stimulation, FIG. 13D
# Method: (§1) FIG. 13 depicts effects of paclitaxel on cellular morphology, gene and protein expression. (A and B) SFA smooth muscle cells from normal donor tissue were treated with Paclitaxel, Everolimus or Sirolimus. Gene expression levels were determined by qRT-PCR for each drug arm calibrated against unstimulated control for (A) CDKN1A and (C) CTGF. (B) SMCs were exposed to Sirolimus or Paclitaxel, fixed and stained with Actin (red) and Ki67 (green). (D) SFA derived smooth muscle cells were treated with Paclitaxel, Everolimus or Sirolimus then stimulated with Colchicinne (CTGF a) or Angiotensin II (CTGF b). Protein levels were detected by western blot using antibodies against CTGF and beta actin. One representative blot of three replicates shown.
# (§2) Obtaining samples from SFA arteries allowed us to generate SFA derived-smooth muscle cells and to examine the expression of genes of interest as ide12tified in the disease atherectomy samples. In particularly we investigated the transcriptional response to anti-proliferative drugs, e.g. paclitaxel and drugs from the limus family such as sirolimus, everolimus or zotarolimus. These drugs are currently employed in combination devices indicated for the treatment of coronary and peripheral disease, including drug eluting stents and drug eluting balloons. […]
# PEDF = assay: qRT-PCR PEDF gene expression in SFA smooth muscle cells, drug then inflammatory cocktail; conditions: quiescent SFA smooth muscle cells, drug then FBS, TGF Beta and IL-1 beta cocktail; calibrated against unstimulated baseline; FIG. 14C
# Method: (§3) FIG. 14 depicts differential effect of paclitaxel versus the Limus family of drugs on expression of cell cycle, proliferation and ECM target genes in SFA smooth muscle cells. Quiescent SFA smooth muscle cells were treated with of Paclitaxel, Zotarolimus or Sirolimus then stimulated with inflammatory cocktail consisting of FBS, TGF Beta and 11—1 beta. Relative gene expression levels were determined by qRT-PCR for each drug treated arm as calibrated against the unstimulated baseline control for (A) BTG2, (B) KLF4, (C) PEDF, (D) Endothelin-1, (E) Thrombospondin-1, and (F) Thrombospondin-3.
# (§4) Since the limus drugs have been known to affect the signaling via their effect on cell cycle inhibitors (CDKN1A and CDKN1 B), we next studied their effects on the pertinent proliferative disease targets identified in this study. Specifically, we looked at BTG2, KLF4 and PEDF (FIGS. 14A, 14B, and 14C, respectively).
# CDKN1A = assay: qRT-PCR CDKN1A gene expression in drug-treated SFA smooth muscle cells; conditions: SFA smooth muscle cells from normal donor tissue; qRT-PCR calibrated against unstimulated control; FIG. 13A
# Method: as §1, §2
# Endothelin-1 = assay: qRT-PCR Endothelin-1 gene expression in SFA smooth muscle cells, drug then inflammatory cocktail; conditions: quiescent SFA smooth muscle cells, FIG. 14D
# Method: as §3
# (§5) In a similar manner, the expression of Thrombospondin-1 and Thrombospondin-3 is inhibited by paciltaxel but not by sirolimus and zotarolimus. Taken together the data with regards to the differential effects of commercially employed, anti-proliferative drugs, such as paciltaxel and drugs of the limus family, on the expression of SFA disease target genes can highlight/point to wards the most beneficial therapeutic mode of application and treatment.
# KLF4 = assay: qRT-PCR KLF4 gene expression in SFA smooth muscle cells, drug then inflammatory cocktail; conditions: quiescent SFA smooth muscle cells, drug then FBS, TGF Beta and IL-1 beta cocktail; calibrated against unstimulated baseline; FIG. 14B
# Method: as §3, §4
# BTG2 = assay: qRT-PCR BTG2 gene expression in SFA smooth muscle cells, drug then inflammatory cocktail; conditions: quiescent SFA smooth muscle cells, drug then FBS, TGF Beta and IL-1 beta cocktail; calibrated against unstimulated baseline; FIG. 14A
# Method: as §3, §4
# Thrombospondin-3 = assay: qRT-PCR Thrombospondin-3 gene expression in SFA smooth muscle cells, drug then inflammatory cocktail; conditions: quiescent SFA smooth muscle cells, FIG. 14F
# Method: as §3, §5
# SFA smooth muscle cells = assay: Actin and Ki67 staining of SMCs exposed to drug (cellular morphology); conditions: SMCs fixed and stained with Actin and Ki67; FIG. 13B
# Method: as §1, §2
# Thrombospondin-1 = assay: qRT-PCR Thrombospondin-1 gene expression in SFA smooth muscle cells, drug then inflammatory cocktail; conditions: quiescent SFA smooth muscle cells, FIG. 14E
# Method: as §3, §5
# CTGF [2] = assay: qRT-PCR CTGF gene expression in drug-treated SFA smooth muscle cells; conditions: qRT-PCR calibrated against unstimulated control, FIG. 13C
# Method: as §1, §2
SMILES,CTGF protein levels (CTGF [1]),expression of PEDF (PEDF),CDKN1A expression (CDKN1A),expression of Endothelin-1 (Endothelin-1),expression of Endothelin-1 (Endothelin-1; listed as paciltaxel),expression of KLF4 (KLF4),expression of BTG2 (BTG2),expression of Thrombospondin-3 (Thrombospondin-3),expression of Thrombospondin-3 (Thrombospondin-3; listed as paciltaxel),effect on cellular cytoskeleton / morphology (SFA smooth muscle cells),expression of Thrombospondin-1 (Thrombospondin-1),expression of Thrombospondin-1 (Thrombospondin-1; listed as paciltaxel),expression of CTGF (gene) (CTGF [2])
CC(=O)O[C@H]1C(=O)[C@@]2(C)[C@H]([C@H](OC(=O)c3ccccc3)[C@]3(O)C[C@H](OC(=O)[C@H](O)[C@@H](NC(=O)c4ccccc4)c4ccccc4)C(C)=C1C3(C)C)[C@]1(OC(C)=O)CO[C@@H]1C[C@@H]2O [Paclitaxel],reduced,up regulated,does not affect,substantially down regulated,slightly inhibited,up regulated,up regulated,substantially down regulated,inhibited,disrupting cellular cytoskeleton,substantially down regulated,inhibited,substantial down regulation; also recorded: substantially down regulated
CO[C@H]1C[C@@H]2CC[C@@H](C)[C@@](O)(O2)C(=O)C(=O)N2CCCC[C@H]2C(=O)O[C@H]([C@H](C)C[C@@H]2CC[C@@H](OCCO)[C@H](OC)C2)CC(=O)[C@H](C)/C=C(\C)[C@@H](O)[C@@H](OC)C(=O)[C@H](C)C[C@H](C)/C=C/C=C/C=C/1C [everolimus],–,–,up regulating,–,–,–,–,–,–,–,–,–,–
CO[C@H]1C[C@@H]2CC[C@@H](C)[C@@](O)(O2)C(=O)C(=O)N2CCCC[C@H]2C(=O)O[C@H]([C@H](C)C[C@@H]2CC[C@H](n3cnnn3)[C@H](OC)C2)CC(=O)[C@H](C)/C=C(\C)[C@@H](O)[C@@H](OC)C(=O)[C@H](C)C[C@H](C)/C=C/C=C/C=C/1C [zotarolimus],–,–,–,substantially upregulated,–,induced the expression,induced the expression,–,–,–,–,–,–
